Experimental findings from US12084479B2, “Modified antimicrobial peptide derived from an arginine-rich domain” (priority 2016, dated 2024) are described below.

One data set relates to S. aureus. Type of data set: cell-based, Staphylococcus aureus. On the procedure: (§1) The antimicrobial activities of HBcARD peptides were tested using a number of bacterial strains, including Pseudomonas aeruginosa Migula strains (ATCC 27853, ampicillin-resistant and ATCC 9027, ampicillin-resistant), Klebsiella pneumoniae strain (ATCC 13884), Shigella dysenteriae Xen27 (Caliper Co.), Escherichia coli strain (ATCC 25922), Staphylococcus aureus subsp. strains (ATCC 25923, methicillin-resistantATCC 29213, methicillin-resistant and ATCC 19636, methicillin-resistant) and Acinetobacter baumannii strains (ATCC 17978, ATCC 17978 CR, ATCC19606, ATCC 19606 CR, TCGH 45530 and TCGH 46709). Clinical isolates TCGH 45530 and TCGH 46709 were obtained from Tzu-Chi Buddhist General Hospital (TCGH) in Taiwan, and were identified using the Vitek system (Biomerieux Vitek, Inc., Hazelwood, MO, USA). See Chang et al. (2012), J Microbiol Immunol Infect 45:37-42 doi:10.1016/j.jmii.2011.09.019.
(§2) L- and D-HBcARD peptides were purchased from Yao-Hong Biotechnology Inc. (Taipei, Taiwan). Antimicrobial activity was determined as described. See, Chen et al., 2013. Briefly, bacteria were grown in MH broth (Difco) to mid-logarithmic phase at 37° C., and were diluted to 10^6 CFU (colony formation unit)/ml in phosphate buffer (10 mM sodium phosphate and 50 mM sodium chloride, pH 7.2). Peptides were serially diluted in the same buffer. Fifty microliters (μl) of bacteria were mixed with fifty μl of peptides at varying concentrations, followed by incubation at 37° C. for 3 hours without shaking. At the end of incubation, bacteria were placed on Mueller-Hinton broth agar plates, and allowed to grow at 37° C. overnight for measurement of minimal bactericidal concentration (MBC).
(§3) All peptides were tested in triplicate.

Data set [1] in a line: In vivo toxicity (survival, serum ALT). Details: species or system ICR mice. The note with it: for serum ALT level compared with polymyxin B: day 1. On the procedure:
FIG. 7 is a set of graphs showing lower in vivo toxicity of HBcARD peptide D-150-177C in comparison with polymyxin B. At day 0, male ICR mice (5 mice/group) were ip. injected with different doses of D-150-177C peptide (20-80 mg/kg) and polymyxin B (50 mg/kg), respectively. (A) The survival rates of all groups were monitored for 7 days. (B) Serum samples collected from mice treated with D-150-177C and polymyxin B were determined for alanine aminotransferase activity (ALT) at day 1. The dash line represents the mean of ALT value (45 U/L) of ICR mice (Charles River Laboratories).
Using the sepsis mouse model, we examined the survival rates of ICR mice intraperitoneally (i.p.) injected with the 28-mer D-150-177C peptide (20-80 mg/kg body weight) and polymyxin B (a colistin-related compound) (50 mg/kg body weight). […] See FIG. 7, A. When the doses were increased to 60 and 80 mg/kg, survival rates of mice were decreased to 80% and 40%, respectively. See, FIG. 7, A. Liver injury can be detected by the serum ALT level.

For a further data set, the system named is A. baumannii. Type of data set: cell-based, Acinetobacter baumannii. On the procedure: as §1, §2, §3
The subject of another data set is P. aeruginosa. In kind it is cell-based, Pseudomonas aeruginosa. On the procedure: as §1, §2, §3
The test system of another data set is K. pneumoniae. Type of data set: cell-based, Klebsiella pneumoniae. The method, then:
as §1, §2, §3

A further data set has as its system S. aureus ATCC 19636. The experiment in a line: Mouse sepsis model infected with S. aureus, in vivo protection efficacy. The arrangement: species or system ICR mice. The note with it: for survival (mice protected from death): S. aureus 4×10^6 CFU/mouse i.p., monitored 7 days; for in vivo protection efficacy, compared between peptides: mouse sepsis model, FIG. 8 (5 mg/kg) and FIG. 9 (different doses). The method, then:
To investigate the in vivo protection efficacy of the 37-mer L- and D-HBcARD peptides, we performed a mouse sepsis model infected with S. aureus. ICR mice were first i.p. inoculated with S. aureus (4×10^6 CFU/mouse), followed by one single i.p. injection of L-HBcARD, D-HBcARD and PBS at two hours post-inoculation, respectively. All mice (n=10) administered with PBS died at day 1. See FIG. 4, A. At 7 days post-inoculation, 40% of mice treated with L-HBcARD (10 mg/kg) survived. See FIG. 4, A. In contrast, D-HBcARD peptide was able to achieve a much higher survival rate (60% for 5 mg/kg dose, and 100% for 10 mg/kg dose).
We compared the in vivo protection efficacy of HBcARD 150-177C peptides (28-mer) containing either D-form or L-form arginines. ICR mice (n=10/group) were ip. inoculated with S. aureus ATCC19636 (4×10^6/mouse), followed by treatment with modified peptides at two hours post-inoculation. All PBS control mice died on day 1, and only 20% of the mice treated with control peptide (150-177Q) survived. Administration of L-150-177C peptide at the dose of 5 and 10 mg/kg protected 30% and 70% mice from death, respectively. When treated with 5 mg/kg of D-150-177C, all mice (100%) survived.
Three-week old male ICR mice (19 to 21 g) were purchased from BioLASCO (Taiwan). To test the in vivo protection efficacy of the HBcARD peptides, all mice were inoculated intraperitoneally with S. aureus ATCC 19636 (4×10^6 CFU/mouse). HBc147-183 (L- or D-HBcARD) or the PBS control was administered intraperitoneally at 2 hours after bacterial inoculation, respectively. Each group contained 10 mice. Mortality was monitored daily for 7 days following the bacterial inoculation.

The subject of a further data set is E. coli. Type of data set: cell-based, Escherichia coli. The following applies: for Minimal bactericidal concentration: E. coli ATCC 25922. The method, then: as §1, §2, §3
The mark [2] stands for this setting: 5 mg/kg single i.p. injection 2 hours post-inoculation.

Read-outs that look alike come from different tables or passages of the source. Where a SMILES comes first, the peptide text is derived from it. Where no end group is shown, it is not given here. [ ]: non-standard residue; d: D form.

Consider RRRRSQSPRRRRSC [164-177C], for which the MBC – broadly, the lowest tested concentration that kills the bacteria rather than only halting them – against S. aureus (S. aureus ATCC19636) is listed as “none of these peptides showed detectable activity”.

With `C[C@@H](O)[C@H](NC(=O)[C@@H](CCCNC(=N)N)NC(=O)[C@@H](CCCNC(=N)N)NC(=O)[C@@H](CCCNC(=N)N)NC(=O)[C@@H]1CCCN1C(=O)[C@H](CO)NC(=O)[C@@H](CCCNC(=N)N)NC(=O)CNC(=O)[C@@H](CCCNC(=N)N)NC(=O)[C@@H](CCCNC(=N)N)NC(=O)[C@H](N)CCCNC(=N)N)C(=O)N1CCC[C@H]1C(=O)N[C@@H](CO)C(=O)N1CCC[C@H]1C(=O)N[C@H](CCCNC(=N)N)C(=O)N[C@H](CCCNC(=N)N)C(=O)N[C@H](CCCNC(=N)N)C(=O)N[C@H](CCCNC(=N)N)C(=O)N[C@@H](CO)C(=O)N[C@@H](CCC(N)=O)C(=O)N[C@@H](CO)C(=O)N1CCC[C@H]1C(=O)N[C@H](CCCNC(=N)N)C(=O)N[C@H](CCCNC(=N)N)C(=O)N[C@H](CCCNC(=N)N)C(=O)N[C@H](CCCNC(=N)N)C(=O)N[C@@H](CO)C(=O)N[C@@H](CS)C(=O)O` [D-150-177C, rrrGrSPrrrTPSPrrrrSQSPrrrrSC] (H-[dR][dR][dR]G[dR]SP[dR][dR][dR]TPSP[dR][dR][dR][dR]SQSP[dR][dR][dR][dR]SC-OH; N-terminus and C-terminus assumed), the survival rate is reported as 80% in data set [1] (60 mg/kg i.p., monitored 7 days) and 40% in data set [1] (80 mg/kg i.p., monitored 7 days). Moreover, the “serum ALT level compared with polymyxin B” value in data set [1] (60 mg/kg, p<0.01) is “significantly higher”; in data set [1] (20 to 40 mg/kg, p value insignificant), “higher ALT level than polymyxin B”. Further, the acute toxicity entry in data set [1] (20 and 40 mg/kg i.p., monitored 7 days) is “no acute toxicity”.

“RKPRGLEPRRRKVKTTVVYGRRRSKSRGRRSSPSQR [Heron HBcARD]”: the Minimal bactericidal concentration in the data set on A. baumannii is 69.3 µg/mL; with P. aeruginosa, >69.3 µg/mL; with K. pneumoniae it was >69.3 µg/mL.

In turn, RRRGRSPRRRTPSPRRRRSQSPRRRRSQ [150-177Q] yielded a survival in the data set with S. aureus ATCC 19636 (control peptide, dose not given, treatment 2 hours post-inoculation) of 20%. Moreover, in the data set on S. aureus (S. aureus ATCC19636, listed as HBcARD 150-177Q), the MBC entry is “no detectable bactericidal activity”.

As to “TVIRRRGGARASRSPRRRTPSPRRRRSQSPRRRRSQSPSANC [Woodchuck HBcARD]”, the Minimal bactericidal concentration was 4.9 µg/mL in the data set with A. baumannii (A. baumannii ATCC 17978); 19.6 µg/mL in the data set with E. coli; 9.8 µg/mL in the data set with P. aeruginosa (P. aeruginosa ATCC 9027); 19.6 µg/mL with S. aureus (S. aureus ATCC19636); 9.8 µg/mL with K. pneumoniae (K. pneumoniae ATCC 13884).

Turning to “RrRGRSPRrRTPSPRrRrSQSPRrRrSC (R[dR]RGRSPR[dR]RTPSPR[dR]R[dR]SQSPR[dR]R[dR]SC) [LD-150-177C]”, the “survival (mice protected from death)” value with S. aureus ATCC 19636 (setting [2]) is listed as 80%. The “in vivo protection efficacy, compared between peptides” value in the data set with S. aureus ATCC 19636 is “less than DL-150-177C”.

Regarding “TIVRRRGGSRATRSPRRRTPSPRRRRSQSPRRRRSQSPASSNC [Bat HBcARD]”, the Minimal bactericidal concentration with A. baumannii (A. baumannii ATCC 17978) was found to be 2.5 µg/mL; with E. coli it was 20 µg/mL; with P. aeruginosa (P. aeruginosa ATCC 9027) it was 10 µg/mL; with S. aureus (S. aureus ATCC19636) it was 20 µg/mL; in the data set on K. pneumoniae (K. pneumoniae ATCC 13884) it was 5 µg/mL.

Take “rRrGRSPrRrTPSPrRrRSQSPrRrRSC ([dR]R[dR]GRSP[dR]R[dR]TPSP[dR]R[dR]RSQSP[dR]R[dR]RSC) [DL-150-177C]”: the “survival (mice protected from death)” value in the data set on S. aureus ATCC 19636 (setting [2]) is “protected all S. aureus-infected mice from death”. In the data set with S. aureus ATCC 19636, the “in vivo protection efficacy, compared between peptides” value is “very similar protection efficacy to all-D-arginine substituted peptide D-150-177C”.

Turning to polymyxin B [reference compound], the “survival outcome after i.p. injection” value in data set [1] (50 mg/kg body weight i.p.) is reported as “died at day one”.

Take RRRGRSPRRRTPSPRRRRSQSPRRRRSC [150-177C]: the MBC in the data set on E. coli is 2 µM; in the data set with P. aeruginosa it was 2 µM; in the data set with S. aureus, 2 µM; with S. aureus (S. aureus ATCC19636, listed as HBcARD 150-177C), “rescued the bactericidal activity”. Moreover, the “survival (mice protected from death)” value is listed as 30% with S. aureus ATCC 19636 (setting [2]) and 70% with S. aureus ATCC 19636 (10 mg/kg single i.p. injection 2 hours post-inoculation).

With RRRGRSPRRRTPSPRRRRC [150-168C], the MBC entry in the data set on S. aureus (S. aureus ATCC19636) was “none of these peptides showed detectable activity”.

In the case of “RKPRGLEPRRRKVKTTVVYGRRRSKSRERRAPTPQR [Duck HBcARD]”, the figures for the Minimal bactericidal concentration in the data set on A. baumannii, with P. aeruginosa and in the data set with K. pneumoniae were 70.6 µg/mL, >70.6 µg/mL and >70.6 µg/mL, respectively.

For RRRTPSPRRRRSQSPRRRRC [157-176C], the MBC entry in the data set with S. aureus (S. aureus ATCC19636) is reported as “none of these peptides showed detectable activity”.

Take “rRrGRPrRrPPrRrRQPrRrRC ([dR]R[dR]GRP[dR]R[dR]PP[dR]R[dR]RQP[dR]R[dR]RC) [DL-dST-150-177C]”: the “in vivo protection efficacy, compared between peptides” value with S. aureus ATCC 19636 is “remarkably improved protection efficacy compared to the 28-mers DL-150-177C and L-150-177C”.
